Series [1] can be described thus: Extrapolated delivery through human skin, assuming 1/5 the permeability of mouse skin. In kind it is in vitro ADME. As to the method:
The permeation of the compounds from the mixture of propylene glycol triacetin was negligible. The concentration of each analgesic can be increased to 3% or 4% in the donor solution and corresponding increases in flux can be expected. […] A usual dose for oxymorphone and hydromorphone is about 6 to 10 mg per day in humans.
Assuming the permeability of human skin to be 1/5 that of mouse skin, a daily flux of 0.68 mg can be achieved in man. The maximum daily dose in man is approximated to be 0.2 mg.

For series [2] the following is noted: for P Px*: Px = permeability coefficient of the drug from propylene glycol solution; for Flux^+: expressed in terms of procaterol hydrochloride, concentration could not be measured.
A further series can be described thus: in vitro. The conditions noted are these: mouse.
Where [3] appears, read: LA:PG:TA 5:30:65, 0.5 wt % analgesic, Conc. 5.5 mg/ml.
The mark [4] stands for this setting: LA:PG:TA 10:30:60, 0.5 wt % analgesic, Conc. 5.4 mg/ml.
Setting [5] is: LA:PG:TA 20:30:50, 0.5 wt % analgesic, Conc. 5.3 mg/ml.
The mark [6] stands for this setting: Vehicle LA:TA:PG 20:50:30, Conc'n. 21.57 mg/ml.

As usually defined, the Papp is a coefficient for how fast a substance crosses the barrier. High values mean ready permeation, low ones poor permeation.

Structures are written as SMILES. Where a name gives a salt, the structure may show the parent alone. Read-outs that look alike come from different tables or passages of the source.

In the case of `CN1CC[C@]23c4c5ccc(O)c4O[C@H]2C(=O)CC[C@@]3(O)[C@H]1C5` [OX, Oxymorphone], the “delivered from a 10 cm² patch in humans” value in series [1] (loading concentration increased to 2%, four-fold increase in flux expected) is listed as “about 12.8 mg/day”. Further, in series [1] (loading concentration of 0.5%, assuming 1/5 the permeability), the “delivery from a 10 cm² patch through human skin” value was “about 3.2 mg/day”. For the same compound, the Flux in series [2] (setting [3]) stood at 40.0 ug/cm^2/hr; in series [2] (setting [4]), 51.5 ug/cm^2/hr; in series [2] (setting [5]), 66.6 ug/cm^2/hr. The entries for the “Lag Time” value in series [2] (setting [3]), in series [2] (setting [4]) and in series [2] (setting [5]) were 7.6 h, 4.1 h and 3.5 h, respectively. Also, the “delivery from a 10 cm² patch through hairless mouse skin” value in series [2] (loading concentration of 0.5%, equivalent of flux 66.6 ug/cm²/hr) is recorded as “about 16 mg/day”. Moreover, the Papp in the series “in vitro” (PX10^6, LA:PG:TA 5:30:65, 0.5 wt % analgesic, Conc. 5.5 mg/ml) worked out at 2 ×10⁻⁶ cm/s; in “in vitro” (PX10^6, LA:PG:TA 10:30:60, 0.5 wt % analgesic, Conc. 5.4 mg/ml), 2.7 ×10⁻⁶ cm/s; in the series “in vitro” (PX10^6, LA:PG:TA 20:30:50, 0.5 wt % analgesic, Conc. 5.3 mg/ml), 3.5 ×10⁻⁶ cm/s.
With `CC1CC(=O)NN=C1c1ccc(-n2ccnc2)cc1` (stereo not drawn) [Compound I Base], the “Lag Time” value was 6.2 h in series [2] (0 % Linoleic Acid in propylene glycol, Conc'n. 26.38 mg/ml); 1.75 h in series [2] (10 % Linoleic Acid in propylene glycol, Conc'n. 43 mg/ml); 1.45 h in series [2] (40 % Linoleic Acid in propylene glycol, Conc'n. 43 mg/ml); 1.29 h in series [2] (80 % Linoleic Acid in propylene glycol, Conc'n. 43 mg/ml); 5.35 h in series [2] (100 % Linoleic Acid, Conc'n. 31.5 mg/ml); 1.91 h in series [2] (setting [6]). Besides, the “Lag Time” value in series [2] (Vehicle LA:TG 20:80, Conc'n. 20.09 mg/ml) worked out at 5.58 h. The Flux in series [2] (0 % Linoleic Acid in propylene glycol, Conc'n. 26.38 mg/ml, expressed as hydrochloride salt) amounted to 0.4 ug/cm^2/h; in series [2] (10 % Linoleic Acid in propylene glycol, Conc'n. 43 mg/ml, expressed as hydrochloride salt), 492 ug/cm^2/h; in series [2] (40 % Linoleic Acid in propylene glycol, Conc'n. 43 mg/ml, expressed as hydrochloride salt), 337.3 ug/cm^2/h; in series [2] (80 % Linoleic Acid in propylene glycol, Conc'n. 43 mg/ml, expressed as hydrochloride salt) it was 148.5 ug/cm^2/h; in series [2] (100 % Linoleic Acid, Conc'n. 31.5 mg/ml, expressed as hydrochloride salt), 24.5 ug/cm^2/h; in series [2] (setting [6]), 130.14 ug/cm^2/h. For the same compound, the Flux in series [2] (Vehicle LA:TG 20:80 (TG = tetraglycol), Conc'n. 20.09 mg/ml) is 186.69 ug/cm^2/h. The “P Px*” value in series [2] (0 % Linoleic Acid in propylene glycol) worked out at 1; in series [2] (10 % Linoleic Acid in propylene glycol), 755; in series [2] (40 % Linoleic Acid in propylene glycol), 517; in series [2] (80 % Linoleic Acid in propylene glycol), 227; in series [2] (100 % Linoleic Acid), 51; in series [2] (Vehicle LA:TA:PG 20:50:30), 400. The “P Px*” value in series [2] (Vehicle LA:TG 20:80) was found to be 614. Further, the Papp amounted to 0.0042 ×10⁻⁶ cm/s in “in vitro” (Permeability Coefficient (P), 0 % Linoleic Acid in propylene glycol, Conc'n. 26.38 mg/ml); 3.18 ×10⁻⁶ cm/s in the series “in vitro” (Permeability Coefficient (P), 10 % Linoleic Acid in propylene glycol, Conc'n. 43 mg/ml); 2.18 ×10⁻⁶ cm/s in the series “in vitro” (Permeability Coefficient (P), 40 % Linoleic Acid in propylene glycol, Conc'n. 43 mg/ml); 0.96 ×10⁻⁶ cm/s in “in vitro” (Permeability Coefficient (P), 80 % Linoleic Acid in propylene glycol, Conc'n. 43 mg/ml); 0.22 ×10⁻⁶ cm/s in the series “in vitro” (Permeability Coefficient (P), 100 % Linoleic Acid, Conc'n. 31.5 mg/ml); 1.68 ×10⁻⁶ cm/s in the series “in vitro” (Permeability Coefficient (P), Vehicle LA:TA:PG 20:50:30, Conc'n. 21.57 mg/ml). In addition, the Papp in “in vitro” (Permeability Coefficient (P), Vehicle LA:TG 20:80, Conc'n. 20.09 mg/ml) was 2.58 ×10⁻⁶ cm/s; in “in vitro” (permeability coefficient), 7.6 ×10⁻⁶ cm/s.
Take `CCC(NC(C)C)C(O)c1ccc(O)c2[nH]c(=O)ccc12` (stereo not drawn) [Procaterol]: the Lag Time in series [2] (Ratio of LA:TA:PG 5:85:10) came out at 5.5 h; in series [2] (Ratio of LA:TA:PG 10:80:10), 4.8 h; in series [2] (Ratio of LA:TA:PG 15:75:10), 4.05 h; in series [2] (Ratio of LA:TA:PG 20:50:30) it was 4.4 h; in series [2] (Ratio of LA:TA:PG 20:75:5), 4.8 h; in series [2] (Vehicle Ethyl Linoleate:PG:TA 10:5:85, Drug Conc. 0.855 mg/ml) it was 6 h. Moreover, the “Lag Time” value was 8 h in series [2] (Vehicle Ethyl Linoleate:TG 10:90, Drug Conc. 12.29 mg/ml); 1.26 h in series [2] (Vehicle LA:TA:PG 20:50:30, Procaterol Conc. 40 mg/ml); 14.7 h in series [2] (Vehicle LA:TEC:PG 10:70:20, Drug Conc. 23.03 mg/ml); 14.7 h in series [2] (Vehicle LA:TEC:PG 10:80:10, Drug Conc. 16.9 mg/ml); 11.2 h in series [2] (Vehicle LA:TEC:PG 20:50:30, Drug Conc. 4.32 mg/ml); 7.3 h in series [2] (Vehicle LA:TEC:PG 20:50:30, Drug Conc. 44.7 mg/ml). Further, the “Lag Time” value in series [2] (Vehicle LA:TEC:PG 20:60:20, Drug Conc. 19.35 mg/ml) was found to be 4.9 h; in series [2] (Vehicle LNA:PG:TA 20:15:65, Drug Conc. 8.15 mg/ml) it was 2 h; in series [2] (Vehicle Oleic Acid:PG:TA 20:30:50, Drug Conc. 15.89 mg/ml) it was 1.8 h. Moreover, the “Flux^+” value in series [2] (Ratio of LA:TA:PG 5:85:10) was determined as 23.1 ug/cm^2/h; in series [2] (Ratio of LA:TA:PG 10:80:10), 44.2 ug/cm^2/h; in series [2] (Ratio of LA:TA:PG 15:75:10), 53.2 ug/cm^2/h; in series [2] (Ratio of LA:TA:PG 20:50:30), 56.3 ug/cm^2/h; in series [2] (Ratio of LA:TA:PG 20:75:5), 33.9 ug/cm^2/h. The Flux in series [2] (Vehicle Ethyl Linoleate:PG:TA 10:5:85, Drug Conc. 0.855 mg/ml, expressed as procaterol hydrochloride) is recorded as 9.60 ug/cm^2/h; in series [2] (Vehicle Ethyl Linoleate:TG 10:90, Drug Conc. 12.29 mg/ml, expressed as procaterol hydrochloride) it was 36.27 ug/cm^2/h; in series [2] (Vehicle LA:TA:PG 20:50:30, Procaterol Conc. 40 mg/ml, expressed as hydrochloride salt) it was 158.6 ug/cm^2/h; in series [2] (Vehicle LNA:PG:TA 20:15:65 (LNA = Linolenic Acid), Drug Conc. 8.15 mg/ml, expressed as procaterol hydrochloride), 76.27 ug/cm^2/h; in series [2] (Vehicle Oleic Acid:PG:TA 20:30:50, Drug Conc. 15.89 mg/ml, expressed as procaterol hydrochloride) it was 171.76 ug/cm^2/h. Further, the “Flux*” value was 33.5 ug/cm^2/h in series [2] (Vehicle LA:TEC:PG 10:70:20, Drug Conc. 23.03 mg/ml, expressed as hydrochloride salt); 32.0 ug/cm^2/h in series [2] (Vehicle LA:TEC:PG 10:80:10, Drug Conc. 16.9 mg/ml, expressed as hydrochloride salt); 8.5 ug/cm^2/h in series [2] (Vehicle LA:TEC:PG 20:50:30, Drug Conc. 4.32 mg/ml, expressed as hydrochloride salt); 65.8 ug/cm^2/h in series [2] (Vehicle LA:TEC:PG 20:50:30, Drug Conc. 44.7 mg/ml, expressed as hydrochloride salt); 46.0 ug/cm^2/h in series [2] (Vehicle LA:TEC:PG 20:60:20, Drug Conc. 19.35 mg/ml, expressed as hydrochloride salt). Besides, the Papp came out at 3.12 ×10⁻⁶ cm/s in the series “in vitro” (P, Vehicle Ethyl Linoleate:PG:TA 10:5:85, Drug Conc. 0.855 mg/ml); 0.82 ×10⁻⁶ cm/s in the series “in vitro” (P, Vehicle Ethyl Linoleate:TG 10:90, Drug Conc. 12.29 mg/ml); 1.1 ×10⁻⁶ cm/s in “in vitro” (P, Vehicle LA:TA:PG 20:50:30, Procaterol Conc. 40 mg/ml); 0.404 ×10⁻⁶ cm/s in “in vitro” (P, Vehicle LA:TEC:PG 10:70:20, Drug Conc. 23.03 mg/ml); 0.526 ×10⁻⁶ cm/s in the series “in vitro” (P, Vehicle LA:TEC:PG 10:80:10, Drug Conc. 16.9 mg/ml); 0.547 ×10⁻⁶ cm/s in the series “in vitro” (P, Vehicle LA:TEC:PG 20:50:30, Drug Conc. 4.32 mg/ml). The Papp in the series “in vitro” (P, Vehicle LA:TEC:PG 20:50:30, Drug Conc. 44.7 mg/ml) came to 0.41 ×10⁻⁶ cm/s; in the series “in vitro” (P, Vehicle LA:TEC:PG 20:60:20, Drug Conc. 19.35 mg/ml), 0.66 ×10⁻⁶ cm/s; in the series “in vitro” (P, Vehicle LNA:PG:TA 20:15:65, Drug Conc. 8.15 mg/ml), 2.6 ×10⁻⁶ cm/s; in the series “in vitro” (P, Vehicle Oleic Acid:PG:TA 20:30:50, Drug Conc. 15.89 mg/ml), 3 ×10⁻⁶ cm/s.
As for `CCC(NC(C)C)C(O)c1ccc(O)c2[nH]c(=O)ccc12` (stereo not drawn) [Procaterol Hydrochloride], in series [1], the “daily flux in man” value is 0.68 mg. For the same compound, the “Lag Time” value in series [2] (Solvent System LA:PG:TA 20:30:50, approximate concentration 5 mg/ml) is listed as 4.0 h. The Flux was 14 ug/cm^2/h in series [2] (Solvent System LA:PG:TA 20:30:50, approximate concentration 5 mg/ml, Hydrochloride) and “about 14 ug/cm^2/h” in series [2] (Solvent System LA:PG:TA 20:30:50, approximate concentration 5 mg/ml, listed as procaterol hydrochloride, Hydrochloride). Besides, the flux value in series [2] (formulation containing LA:PG:TA (20:30:50)) amounted to 3.36 mg/day/10 cm². Also, the Papp in “in vitro” (P, Solvent System LA:PG:TA 20:30:50, approximate concentration 5 mg/ml) stood at 0.77 ×10⁻⁶ cm/s.

Values taken from patent EP0255485A2, “Transdermal compositions” (priority 1986, dated 1988).
